{"source": "patent EP0227593A1", "about": "“Use of chelating agents” (THE HOSPITAL FOR SICK CHILDREN, priority 1985, dated 1987)", "key": {"patient's PB blast cells": {"system": "patient's PB blast cells", "experiment": "ALL blast colony assay", "assay_type": "cell-based", "details": "Homo sapiens", "description": "ALL Blast Colony Assay: The assay we used is a modification of previously described methods. T-cell depletion: Post-Ficoll mononuclear BM cells were incubated with neuraminidase sensitized sheep erthrocytes (SRBC) at 4°C for 2 hours, followed by gradient centrifugation. This procedure was repeated twice. Cells at the interface contained less than 0.5 % T-cells as assessed by AET sensitized SRBC rosette formation and using anti-Leu-4 and anti-Leu-5 monoclonal anti-T-cell antibodies (Becton Dickinson, CA). T-lymphocytes were obtained by recovery of rosetted cells from the pellet following lysis with Tris-buffered ammonium chloride (Sigma, St. Louis, MO). Feeder Cells: Post-Ficoll normal donors' PB cells were depleted of adherent cells by incubation on plastic Petri dishes with 10 % fetal calf serum for 90 min. at 37°C. […]\nCell Culture Procedure: 2 x 10⁵ T-depleted cells were incubated with 40 % RPMI-methylcellulose, 20 % PHA-LCM, 10 % FCS, irradiated feeder cells (10⁵/dish), 16.6 % RPMI in 35 mm Petri dishes. […] Colonies were counted at day 4. […] For control, 2 x 10⁵ irradiated feeder cells were cultured in the same assay system in each experiment to exclude their potential for colony formation Immunocytochemical Method: The cell surface antigens of air dried smears were detected using monoclonal antibodies and intestinal alkaline phosphatase, as previously described. […]"}, "HL-60 cells": {"system": "HL-60 cells", "experiment": "Colony growth of HL-60 cells", "assay_type": "cell-based, human", "description": "HL-60 cells, a promyeloctic leukemia cell line originally developed by Dr. R. Gallo, NIH, were used. Cells were grown in RPMI supplemented with 10 % heat inactivated fetal calf serum (FCS, Flow Laboratories, Rockville, MO) and 2 mM glutamine (Gibco, Berkely, CA), at densities ranging from 1-2 x 10⁵/ml to 1-10⁶/ml, in a 5 % CO₂ humidified atmosphere at 37°C.\nHL-60 cells (10⁴/ml) were plated in 0.8 % methycellulose in RPMI-1640 medium supplemented with 20 % heat inactivated (56°C, 30 min) fetal calf serum at a final volume of 1 ml/culture plate. Cultures were set up in duplicates and maintained at 37°C in a 5 % CO₂ humidified atmosphere. Deferoxamine was dissolved in iron-free RPMI culture medium and added at the initiation of culture at different concentrations (1-10 µM). Colonies were counted at 7 days using an inverted microscope. A cluster of more than 20 cells was defined as a colony. Individual colonies were plucked from culture plates spread on glass slides and morphologically assessed after preparation with Wright's stain and non-specific esterase in the presence of fluoride (29). The self renewal capacity of cells was assessed according to McCulloch et al (30). RPMI-1640 medium was added to culture dishes for 2 hrs; the contents of each dish were then transferred into a tube, centrifuged and washed with medium three times. Cells from each dish were counted separately, and viability was assessed by trypan blue dye exclusion. Cells (1x10⁴/ml) from each dish were recultured in 0.8 % methylcellulose as before."}, "Lewis lung carcinoma": {"system": "Lewis lung carcinoma", "experiment": "Tumour growth and metastases of Lewis lung carcinoma in mice", "assay_type": "in vivo", "details": "11 injections", "description": "Female C57B16 mice (10 mice/group, 18-22 g body weight) were i.m. injected into the left hind leg with 0.1 ml of a tumour cell suspension of Lewis lung carcinoma (day 0).\nNine groups of animals were investigated. The test compounds were s.c. administered as follows: physiological saline: once daily for eleven days starting from day 0 up to day 10. DFO: 0.5 ml in distilled water in a dose of 10 and 30 mg/kg once daily for eleven days, on day 0 up to day 10 after tumour inocculation. 10-EDAM: 0.5 ml in distilled water in a dose of 3 and 6 mg/kg, once daily on days 1, 3, 5, 7 and 9 after tumour inocculation.\nBoth hind legs were removed from the body, weighed, and the difference between the tumour bearing and the tumour free leg was taken as the tumour weight of one idividual mouse.\nLungs were filled up with Pelikan-ink via the trachea, fixed in Fekete-solution and metastases (white spot on black back-ground) on the lung surface were counted microscopically."}}}
{"smiles": "CC(=O)N(O)CCCCCNC(=O)CCC(=O)N(O)CCCCCNC(=O)CCC(=O)N(O)CCCCCN", "note": "[DFO, desferioxamine methanesulfonate]", "values": [{"measurement": "inhibition at 2.15 µM", "setting": "patient's PB blast cells; 2.15 µM DFO, read-out: reduction in blast colonies", "value": 70, "unit": "%"}, {"measurement": "minimal effective concentration", "setting": "patient's PB blast cells; patient's PB blast cells, read-out: DFO concentrations with significant decline in blast colonies", "value": "> 1.25", "unit": "µM"}, {"measurement": "inhibition of HL-60 colony proliferation", "setting": "HL-60 cells; 10 µm DFO", "value": 100, "unit": "%"}, {"measurement": "inhibition at 3.5 µM", "setting": "HL-60 cells; Homo sapiens, HL-60, 3.5 µM DFO, read-out: inhibition of HL-60 colony proliferation", "value": 50, "unit": "%"}, {"measurement": "Number of lung metastases % of control", "setting": "Lewis lung carcinoma; group 2: DFO 10 mg/kg s.c.", "value": 103, "unit": "%"}, {"measurement": "Number of lung metastases x̄ ± SD", "setting": "Lewis lung carcinoma; group 2: DFO 10 mg/kg s.c.", "value": "69 ± 26"}, {"measurement": "Tumour weight % of control", "setting": "Lewis lung carcinoma; group 2: DFO 10 mg/kg s.c.", "value": 100, "unit": "%"}, {"measurement": "Tumour weight x̄ ± SD", "setting": "Lewis lung carcinoma; group 2: DFO 10 mg/kg s.c.", "value": "7.56 ± 0.32", "unit": "g"}, {"measurement": "Number of lung metastases % of control", "setting": "Lewis lung carcinoma; group 3: DFO 30 mg/kg s.c.", "value": 78, "unit": "%"}, {"measurement": "Number of lung metastases x̄ ± SD", "setting": "Lewis lung carcinoma; group 3: DFO 30 mg/kg s.c.", "value": "52 ± 16"}, {"measurement": "Tumour weight % of control", "setting": "Lewis lung carcinoma; group 3: DFO 30 mg/kg s.c.", "value": 106, "unit": "%"}, {"measurement": "Tumour weight x̄ ± SD", "setting": "Lewis lung carcinoma; group 3: DFO 30 mg/kg s.c.", "value": "7.99 ± 0.42", "unit": "g"}]}
